Measured values published in the NIST ThermoML archive (doi:10.1021/je0602723).
Numbers after ± are expanded uncertainties. One block for each compound: values may come before it.

Assay: activity coefficient (dimensionless); of the first substance listed, at infinite dilution; xn = mol fraction of the nth substance listed
Settings: Liquid, Chromatography, x1 = 0

- activity coefficient (323 K): 1.68 ± 0.11
- activity coefficient (333.4 K): 1.59 ± 0.11
- activity coefficient (343.8 K): 1.5 ± 0.1
- activity coefficient (354.2 K): 1.42 ± 0.09
- activity coefficient (365 K): 1.29 ± 0.08
Compound: CCCCO [butan-1-ol] + CCOS(=O)(=O)[O-].CCn1cc[n+](C)c1

- activity coefficient (301.8 K): 357 ± 25
- activity coefficient (312.4 K): 304 ± 21
- activity coefficient (322.9 K): 249 ± 17
- activity coefficient (333.5 K): 200 ± 14
Compound: CCCCCCCCC [nonane] + CCOS(=O)(=O)[O-].CCn1cc[n+](C)c1

- activity coefficient (312.4 K): 2.1 ± 0.14
- activity coefficient (333.4 K): 2.08 ± 0.14
- activity coefficient (354.2 K): 2.06 ± 0.14
Compound: C1COCCO1 [1,4-dioxane] + CCOS(=O)(=O)[O-].CCn1cc[n+](C)c1

Compound: Cc1ccccc1 [toluene] + CCOS(=O)(=O)[O-].CCn1cc[n+](C)c1
- activity coefficient (312.3 K): 5.77 ± 0.39
- activity coefficient (323 K): 5.62 ± 0.38
- activity coefficient (333.5 K): 5.45 ± 0.37
- activity coefficient (343.9 K): 5.29 ± 0.36
- activity coefficient (354.4 K): 5.08 ± 0.35
- activity coefficient (364.7 K): 4.88 ± 0.33

- activity coefficient (333.5 K): 5.19 ± 0.35
- activity coefficient (343.9 K): 5.1 ± 0.35
- activity coefficient (354.4 K): 4.96 ± 0.34
- activity coefficient (364.8 K): 4.82 ± 0.33
- activity coefficient (375.2 K): 4.69 ± 0.32
Compound: CCCCC=O [pentanal] + CCOS(=O)(=O)[O-].CCn1cc[n+](C)c1

- activity coefficient (322.8 K): 3.47 ± 0.24
- activity coefficient (333.4 K): 3.39 ± 0.23
- activity coefficient (344 K): 3.35 ± 0.23
- activity coefficient (354.5 K): 3.29 ± 0.22
- activity coefficient (364.9 K): 3.23 ± 0.22
- activity coefficient (375.3 K): 3.2 ± 0.22
- activity coefficient (385.9 K): 3.14 ± 0.21
Compound: CCCC=O [butanal] + CCOS(=O)(=O)[O-].CCn1cc[n+](C)c1

- activity coefficient (343.8 K): 16.8 ± 1.1
- activity coefficient (354.3 K): 15.7 ± 1.1
- activity coefficient (364.7 K): 14.9 ± 1
- activity coefficient (375.1 K): 14 ± 0.95
- activity coefficient (385.7 K): 13.2 ± 0.9
Compound: CCCc1ccccc1 [propylbenzene] + CCOS(=O)(=O)[O-].CCn1cc[n+](C)c1

- activity coefficient (354.3 K): 9.16 ± 0.62
- activity coefficient (364.7 K): 8.71 ± 0.59
- activity coefficient (375.1 K): 8.21 ± 0.56
- activity coefficient (385.7 K): 7.77 ± 0.53
Compound: CCc1ccccc1 [ethylbenzene] + CCOS(=O)(=O)[O-].CCn1cc[n+](C)c1

- activity coefficient (301.8 K): 2.98 ± 0.2
- activity coefficient (312.3 K): 2.94 ± 0.2
- activity coefficient (323 K): 2.88 ± 0.2
- activity coefficient (333.5 K): 2.79 ± 0.19
- activity coefficient (343.9 K): 2.69 ± 0.18
- activity coefficient (354.4 K): 2.59 ± 0.18
- activity coefficient (364.7 K): 2.5 ± 0.17
Compound: c1ccccc1 [benzene] + CCOS(=O)(=O)[O-].CCn1cc[n+](C)c1

- activity coefficient (301.9 K): 221 ± 15
- activity coefficient (312.5 K): 184 ± 13
- activity coefficient (322.9 K): 148 ± 10
- activity coefficient (333.5 K): 119 ± 8.2
Compound: CCCCCCCC [octane] + CCOS(=O)(=O)[O-].CCn1cc[n+](C)c1

- activity coefficient (301.8 K): 504 ± 35
- activity coefficient (312.4 K): 445 ± 31
- activity coefficient (322.9 K): 389 ± 27
- activity coefficient (333.5 K): 331 ± 23
Compound: CCCCCCCCCC [decane] + CCOS(=O)(=O)[O-].CCn1cc[n+](C)c1

- activity coefficient (312.2 K): 11.4 ± 0.78
- activity coefficient (322.9 K): 11.3 ± 0.77
- activity coefficient (333.4 K): 11.1 ± 0.76
Compound: CCCCCC=O [hexanal] + CCOS(=O)(=O)[O-].CCn1cc[n+](C)c1

- activity coefficient (333.6 K): 11.6 ± 0.79
- activity coefficient (344.1 K): 10.9 ± 0.74
- activity coefficient (354.5 K): 10.2 ± 0.69
- activity coefficient (364.9 K): 9.42 ± 0.64
- activity coefficient (375.4 K): 8.57 ± 0.58
- activity coefficient (385.9 K): 7.75 ± 0.53
Compound: CCCCC(=O)OC [methyl pentanoate] + CCOS(=O)(=O)[O-].CCn1cc[n+](C)c1

Compound: CCCCc1ccccc1 [butylbenzene] + CCOS(=O)(=O)[O-].CCn1cc[n+](C)c1
- activity coefficient (343.7 K): 28.4 ± 1.9
- activity coefficient (354.3 K): 26.3 ± 1.8
- activity coefficient (364.8 K): 24.7 ± 1.7
- activity coefficient (375.1 K): 23.2 ± 1.6
- activity coefficient (385.6 K): 21.6 ± 1.5
- activity coefficient (396.1 K): 20.1 ± 1.4

- activity coefficient (302 K): 2.02 ± 0.14
- activity coefficient (312.4 K): 1.86 ± 0.13
- activity coefficient (322.9 K): 1.74 ± 0.12
- activity coefficient (333.4 K): 1.64 ± 0.11
- activity coefficient (343.9 K): 1.57 ± 0.1
- activity coefficient (354.4 K): 1.49 ± 0.1
Compound: CC(C)(C)O [2-methylpropan-2-ol] + CCOS(=O)(=O)[O-].CCn1cc[n+](C)c1

- activity coefficient (322.7 K): 1.65 ± 0.11
- activity coefficient (333.4 K): 1.51 ± 0.1
- activity coefficient (343.9 K): 1.43 ± 0.09
- activity coefficient (357.2 K): 1.24 ± 0.08
- activity coefficient (386 K): 1.17 ± 0.07
Compound: CC(C)CO [2-methyl-1-propanol] + CCOS(=O)(=O)[O-].CCn1cc[n+](C)c1

- activity coefficient (333.5 K): 1.94 ± 0.13
- activity coefficient (343.9 K): 1.9 ± 0.13
- activity coefficient (354.4 K): 1.84 ± 0.12
- activity coefficient (364.8 K): 1.8 ± 0.12
- activity coefficient (375.2 K): 1.74 ± 0.12
Compound: CCC=O [propanal] + CCOS(=O)(=O)[O-].CCn1cc[n+](C)c1

Compound: CCC(C)(C)O [2-methylbutan-2-ol] + CCOS(=O)(=O)[O-].CCn1cc[n+](C)c1
- activity coefficient (302 K): 2.51 ± 0.17
- activity coefficient (312.4 K): 2.44 ± 0.17
- activity coefficient (333.4 K): 2.21 ± 0.15
- activity coefficient (343.9 K): 2.14 ± 0.15
- activity coefficient (354.4 K): 2.07 ± 0.14

- activity coefficient (301.7 K): 20.1 ± 1.4
- activity coefficient (312.4 K): 19.2 ± 1.3
- activity coefficient (333.4 K): 17 ± 1.2
- activity coefficient (343.9 K): 15.9 ± 1.1
Compound: CCCCCC(=O)OC [methyl hexanoate] + CCOS(=O)(=O)[O-].CCn1cc[n+](C)c1

- activity coefficient (303.3 K): 16.1 ± 1.1
- activity coefficient (312.2 K): 15 ± 1
- activity coefficient (322.8 K): 14 ± 0.96
- activity coefficient (333.3 K): 13.1 ± 0.89
- activity coefficient (354.2 K): 11.4 ± 0.78
Compound: CCCCCCC=O [heptanal] + CCOS(=O)(=O)[O-].CCn1cc[n+](C)c1

- activity coefficient (302.5 K): 1.49 ± 0.1
- activity coefficient (312.2 K): 1.41 ± 0.09
- activity coefficient (322.8 K): 1.29 ± 0.08
- activity coefficient (333.4 K): 1.22 ± 0.08
- activity coefficient (343.9 K): 1.15 ± 0.07
Compound: CC(C)O [propan-2-ol] + CCOS(=O)(=O)[O-].CCn1cc[n+](C)c1

- activity coefficient (322.8 K): 1.23 ± 0.08
- activity coefficient (333.5 K): 1.12 ± 0.07
- activity coefficient (343.9 K): 1.05 ± 0.07
- activity coefficient (364.9 K): 0.91 ± 0.06
- activity coefficient (375.4 K): 0.87 ± 0.06
Compound: CCCO [propan-1-ol] + CCOS(=O)(=O)[O-].CCn1cc[n+](C)c1

- activity coefficient (343.8 K): 3.52 ± 0.24
- activity coefficient (354.2 K): 3.27 ± 0.22
- activity coefficient (364.9 K): 3.06 ± 0.21
- activity coefficient (375.2 K): 2.81 ± 0.19
Compound: CCCCCCO [hexan-1-ol] + CCOS(=O)(=O)[O-].CCn1cc[n+](C)c1

- activity coefficient (333.4 K): 2.58 ± 0.18
- activity coefficient (343.9 K): 2.36 ± 0.16
- activity coefficient (354.4 K): 2.22 ± 0.15
- activity coefficient (364.7 K): 2.12 ± 0.14
Compound: CCCCCO [pentan-1-ol] + CCOS(=O)(=O)[O-].CCn1cc[n+](C)c1

- activity coefficient (312.4 K): 0.41 ± 0.03
- activity coefficient (323 K): 0.4 ± 0.03
- activity coefficient (333.4 K): 0.39 ± 0.03
- activity coefficient (343.8 K): 0.38 ± 0.03
- activity coefficient (354.2 K): 0.36 ± 0.03
Compound: CO [methanol] + CCOS(=O)(=O)[O-].CCn1cc[n+](C)c1

- activity coefficient (417.2 K): 0.57 ± 0.04
- activity coefficient (427.5 K): 0.41 ± 0.03
Compound: ON=C1CCCCC1 [cyclohexanone oxime] + CCOS(=O)(=O)[O-].CCn1cc[n+](C)c1

- activity coefficient (302.4 K): 0.86 ± 0.06
- activity coefficient (322.8 K): 0.79 ± 0.05
- activity coefficient (333.5 K): 0.73 ± 0.05
- activity coefficient (343.9 K): 0.69 ± 0.05
- activity coefficient (354.3 K): 0.67 ± 0.05
Compound: CCO [ethanol] + CCOS(=O)(=O)[O-].CCn1cc[n+](C)c1

- activity coefficient (322.9 K): 4.73 ± 0.32
- activity coefficient (333.5 K): 4.58 ± 0.31
- activity coefficient (344 K): 4.38 ± 0.3
- activity coefficient (354.5 K): 4.1 ± 0.28
- activity coefficient (364.9 K): 3.86 ± 0.26
- activity coefficient (375.3 K): 3.61 ± 0.25
Compound: CCC(=O)OC [methyl propanoate] + CCOS(=O)(=O)[O-].CCn1cc[n+](C)c1

Compound: CC(C)=O [acetone] + CCOS(=O)(=O)[O-].CCn1cc[n+](C)c1
- activity coefficient (323.1 K): 1.64 ± 0.11
- activity coefficient (333.6 K): 1.63 ± 0.11
- activity coefficient (343.9 K): 1.61 ± 0.11
- activity coefficient (365 K): 1.56 ± 0.1
- activity coefficient (375.4 K): 1.54 ± 0.1
- activity coefficient (386 K): 1.5 ± 0.1

- activity coefficient (344 K): 7.29 ± 0.5
- activity coefficient (354.5 K): 6.88 ± 0.47
- activity coefficient (364.9 K): 6.58 ± 0.45
- activity coefficient (375.4 K): 6.26 ± 0.43
- activity coefficient (385.9 K): 5.9 ± 0.4
Compound: CCCC(=O)OC [methyl butanoate] + CCOS(=O)(=O)[O-].CCn1cc[n+](C)c1

- activity coefficient (312.2 K): 0.81 ± 0.05
- activity coefficient (333.4 K): 0.8 ± 0.05
- activity coefficient (343.9 K): 0.78 ± 0.05
- activity coefficient (354.3 K): 0.77 ± 0.05
Compound: CC#N [acetonitrile] + CCOS(=O)(=O)[O-].CCn1cc[n+](C)c1

- activity coefficient (301.8 K): 29.8 ± 2
- activity coefficient (312.4 K): 28.4 ± 1.9
- activity coefficient (322.9 K): 27.1 ± 1.9
- activity coefficient (333.4 K): 25.5 ± 1.8
Compound: CCCCCCC(=O)OC [methyl heptanoate] + CCOS(=O)(=O)[O-].CCn1cc[n+](C)c1

- activity coefficient (354.3 K): 43.5 ± 3
- activity coefficient (364.8 K): 40.3 ± 2.8
- activity coefficient (375.1 K): 38 ± 2.6
- activity coefficient (385.7 K): 35 ± 2.4
- activity coefficient (396.1 K): 32.4 ± 2.2
Compound: CCCCCc1ccccc1 [pentylbenzene] + CCOS(=O)(=O)[O-].CCn1cc[n+](C)c1

- activity coefficient (303.3 K): 29.8 ± 2
- activity coefficient (312.2 K): 28.3 ± 1.9
- activity coefficient (322.8 K): 27.1 ± 1.9
- activity coefficient (333.3 K): 26.1 ± 1.8
- activity coefficient (343.8 K): 25.5 ± 1.7
Compound: CCCCCCCC=O [octanal] + CCOS(=O)(=O)[O-].CCn1cc[n+](C)c1

- activity coefficient (312.5 K): 1.93 ± 0.13
- activity coefficient (333.4 K): 1.65 ± 0.11
- activity coefficient (344 K): 1.56 ± 0.1
- activity coefficient (354.5 K): 1.45 ± 0.1
- activity coefficient (364.9 K): 1.42 ± 0.09
Compound: CCC(C)O (centres undefined) [butan-2-ol] + CCOS(=O)(=O)[O-].CCn1cc[n+](C)c1
